# Measurements reported in article PMC5655053, “Pharmacological Basis of CD101 Efficacy: Exposure Shape Matters” (Antimicrobial Agents and Chemotherapy, 2017).
# Values joined by “and” are separate entries in the source; they are usually repeats but may differ in a detail not shown here. Equal values may be shown once. Read-outs that look alike come from different tables or passages of the source. Numbered stars: 1 amine (or outer) side, 2 acyl side, 3 side chain; on linkers, the order of the positions; unused ones are H or OH. Bridge positions count the residues as written; N and C are the ends. Square brackets hold non-standard residues; d marks the D form. Peptide text beside a SMILES is read from it. * marks the point of attachment. Orn(4R-OH,5R-OCH2CH2NMe3+) = C[N+](C)(C)CCO[C@@H](N[*:3])[C@H](O)C[C@H](N[*:1])C(=O)[*:2]; pTerphenylCO(4''-OnC5H11) = CCCCCOc1ccc(-c2ccc(-c3ccc(C(=O)*)cc3)cc2)cc1; hTyr(3S-OH,4S-OH) = N[C@H](C(=O)O)[C@H](O)[C@@H](O)c1ccc(O)cc1; Pro(3S-OH,4S-Me) = C[C@H]1CN[C@H](C(=O)O)[C@H]1O; Hyp = O=C(O)[C@@H]1C[C@@H](O)CN1
# Assays:
# [1] = cited from earlier work
# [2] = Observation for overt toxicity in mice of the front-loaded dose studies; type: in vivo, ICR mice; conditions: any of the mice evaluated
# Experimental: (§1) Simulated free-drug plasma concentration-time profiles of the three fractionated CD101 2 mg/kg dosing regimens are shown in Fig. 4.
# A neutropenic, murine, disseminated candidiasis model was used for the evaluation of the effects of the CD101 dosing regimens on efficacy. Male or female ICR mice (n = 5 per regimen and observation time) weighing 22 ± 2 g were rendered neutropenic by treatments using the injection of cyclophosphamide 4 days prior to infection (day −4) and 1 day prior to infection (day −1) at 150 and 100 mg/kg i.p., respectively. Neutropenia was sustained for the duration of the study with cyclophosphamide doses (100 mg/kg i.p.) administered every 48 h on days 1, 3, 5, and 7 after infection. Each animal was inoculated, using a lateral tail vein injection, with 1 × 10^3 CFU of Candida albicans (isolate R303). CD101 (or vehicle) was administered 24 h postinfection via i.p. injection. Mice were euthanized with CO2 at 168 h (7 days) following the start of treatment. Mice in the control group were euthanized 0, 24, and 48 h after administration of vehicle. Paired kidneys were aseptically harvested and homogenized, and serial dilutions were plated for colony counts to determine the fungal burden (measured in CFU per gram). Kidney counts were not determined in animals that expired prior to the scheduled sacrifice time. […]
# Candida albicans R303 [3] = assay: Front-loaded dose studies, neutropenic murine disseminated candidiasis model; type: in vivo, ICR mice
# Experimental: Fungi in the no-treatment control group grew well and reached a density of greater than 1 × 10^6 CFU/g by 48 h. The magnitudes of net change in log10 CFU from the baseline at 168 h were similar regardless of the fractionation schedule within the CD101 0.7 mg/kg and 7 mg/kg dosing groups. […] In the 7 mg/kg dose group, the magnitude of net change was greater than 2 log10 CFU reduction from the baseline at 168 h, regardless of the fractionation schedule. Conversely, results within the CD101 2 mg/kg group differed across the fractionation schedules. […] However, when this dose was front-loaded (i.e., delivered entirely on day 1), there was a greater than 2 log10 CFU reduction from the baseline at 168 h.
# A neutropenic, murine, disseminated candidiasis model was used for the evaluation of the effects of the CD101 dosing regimens on efficacy. Male or female ICR mice (n = 5 per regimen and observation time) weighing 22 ± 2 g were rendered neutropenic by treatments using the injection of cyclophosphamide 4 days prior to infection (day −4) and 1 day prior to infection (day −1) at 150 and 100 mg/kg i.p., respectively. Neutropenia was sustained for the duration of the study with cyclophosphamide doses (100 mg/kg i.p.) administered every 48 h on days 1, 3, 5, and 7 after infection. Each animal was inoculated, using a lateral tail vein injection, with 1 × 10^3 CFU of Candida albicans (isolate R303). CD101 (or vehicle) was administered 24 h postinfection via i.p. injection. Mice were euthanized with CO2 at 168 h (7 days) following the start of treatment. Mice in the control group were euthanized 0, 24, and 48 h after administration of vehicle. Paired kidneys were aseptically harvested and homogenized, and serial dilutions were plated for colony counts to determine the fungal burden (measured in CFU per gram). Kidney counts were not determined in animals that expired prior to the scheduled sacrifice time. The front-loaded dose studies was performed under animal biosafety level 2 conditions in an Association for Assessment and Accreditation of Laboratory Animal Care-accredited vivarium, at Eurofins Panlabs Taiwan, Ltd., with the oversight of veterinarians to ensure compliance with the Eurofins Panlabs Institutional Animal Care and Use Committee regulations and the humane treatment of laboratory animals.
# [4] = Simulated free-drug plasma concentration-time profiles of the fractionated regimens; design: species or system mouse; conditions: mice
# Experimental: as §1
# (§2) Data collected from the pharmacokinetic study described above were used to develop a pharmacokinetic model describing the disposition of CD101 in mice in S-ADAPT ([21]). The developed pharmacokinetic model, along with the unbound CD101 fraction, was used to simulate free-drug concentration-time profiles for each dosing regimen administered in the front-loaded dose studies. Free-drug AUC0–168 values were calculated through numeric integration of CD101 free-drug concentration-time profiles. Relationships between changes in log10 CFU at 168 h and free-drug AUC0–168/MIC ratios were explored.
# [5] = Single-dose i.p. pharmacokinetic study in mice, plasma, four-compartment model; type: in vivo, ICR mice; conditions: for maximum plasma concentration: female ICR mice, at first sampling (1 h), LC-MS/MS
# Experimental: A four-compartment model best described the disposition of this agent in murine plasma. […] The coefficient of determination (r^2) for the model-predicted concentrations versus observed concentrations was 0.97. […] All model parameters were estimated with excellent precision, as indicated by a standard error of the mean (SEM) of less than 20% for 7 of 8 of the model parameters.
# Healthy female ICR mice weighing 20 to 24 g were administered a single dose of CD101 via intraperitoneal (i.p.) injection. Doses of 1, 4, and 16 mg/kg of body weight were studied, utilizing 3 animals per dose level. Whole-blood samples (one sample per animal) were collected at 1, 3, 6, 12, 24, 48, 72, and 96 h postdose. Plasma was collected by centrifugation, and samples were stored at −20°C or below. Samples were analyzed using liquid chromatography with tandem mass spectrometry detection and an AB-SCIEX API 4000 mass spectrometry system. The method used in the analysis was qualified as fit for the purpose: calibration standards were matrix matched, and, for each analytical batch, triplicate calibration standards were included at the beginning of the batch, approximately in the middle, and at the end. Following analysis, quantitation is carried out by a calibration curve comprising analyte/internal standard area ratio versus concentration. Calibration standards ranged from 0.5 mg/liter (lower limit of quantitation [LLOQ]) to 100 mg/liter. Analytical batch acceptance followed the general guidance criterion that standards/quality control should be within ±20% for accuracy (percent nominal concentration) and ≤20% for precision (percent coefficient of variation). For analysis, plasma samples were quenched with acetonitrile (4:1 acetonitrile/plasma ratio) containing diclofenac as the internal standard. Animals were maintained in accordance with the criteria of the American Association for Assessment and Accreditation of Laboratory Animal Care (AAALAC). The pharmacokinetic study was approved by the Animal Research Committee of the William S. Middleton Memorial Veterans Affairs Hospital and the University of Wisconsin.
# as §2
# Candida albicans R303 [6] = assay: Broth microdilution susceptibility testing (CLSI M27-A3); type: cell-based; conditions: C. albicans R303, CLSI M27-A3, RPMI 1640, 35°C, read at 24 h, ~50% growth inhibition, modal value of three occasions
# Experimental: CD101 was supplied by Cidara Therapeutics, Inc. (San Diego, CA). Stock solutions of CD101 were prepared in dimethyl sulfoxide (DMSO) for the susceptibility testing. The vehicle used for dosing in the in vivo studies was 10% DMSO–1% Tween 20–saline solution. The challenge isolate utilized in these studies was Candida albicans R303. Susceptibility testing was done in accordance with the Clinical and Laboratory Standards Institute (CLSI) M27-A3 methods, using RPMI 1640 medium, an initial inoculum of 0.5 × 10^3 to 2.5 × 10^3 CFU/ml, and incubation at 35°C ([20]). MIC plates were read following 24 h of incubation, and MIC values are reported as concentrations resulting in prominent (∼50%) growth inhibition. Susceptibility testing was performed on three separate occasions. Final results were expressed as modal values. Quality control was performed on each day of testing using CLSI-recommended reference strains (C. krusei ATCC 6258 and C. parapsilosis ATCC 22019).
# [7] = tested on: hepatocytes of Sprague-Dawdley rats; conditions: supratherapeutic (comparable) doses, 2-week repeated-dose study; cited from earlier work
# From the text: The echinocandin CD101 is a novel antifungal agent with activity against Aspergillus and Candida species, including azole- and echinocandin-resistant isolates ([1], [2]). This compound is a structural analog of anidulafungin but differs in certain beneficial ways with regard to toxicological and pharmacokinetic properties.
# [8] = four-compartment model, murine plasma, 1-16 mg/kg i.p.
compound,measurement,setting,value
"CCCCCOc1ccc(-c2ccc(-c3ccc(C(=O)N[C@H]4C[C@@H](O)[C@@H](OCC[N+](C)(C)C)NC(=O)[C@@H]5[C@@H](O)[C@@H](C)CN5C(=O)[C@H]([C@@H](C)O)NC(=O)[C@H]([C@H](O)[C@@H](O)c5ccc(O)cc5)NC(=O)[C@@H]5C[C@@H](O)CN5C(=O)[C@H]([C@@H](C)O)NC4=O)cc3)cc2)cc1 [CD101] ({pTerphenylCO(4''-OnC5H11)}-[Orn(4R-OH,5R-OCH2CH2NMe3+)]T[Hyp][hTyr(3S-OH,4S-OH)]T[Pro(3S-OH,4S-Me)]; lactam 1-C)",terminal half-life,"[1]; humans, healthy volunteers",~133 h
same,overt signs of toxicities,[2],No overt signs of toxicities
same,log10 CFU reduction from the baseline at 168 h,"Candida albicans R303 [3]; total 2 mg/kg as single dose (2 mg/kg x 1), kidney burden, neutropenic ICR mice, n = 5",> 2 log10 CFU and 2 log10 CFU
same,log10 CFU increase from the baseline at 168 h,"Candida albicans R303 [3]; total 2 mg/kg daily (0.29 mg/kg/day x 7), kidney burden, neutropenic ICR mice, n = 5",> 1 log10 CFU and 1 log10 CFU
same,net change in log10 CFU from the baseline at 168 h,"Candida albicans R303 [3]; total 2 mg/kg twice weekly (1 mg/kg x 2), kidney burden, neutropenic ICR mice, n = 5",net fungal stasis
same,log10 CFU reduction from the baseline at 168 h,"Candida albicans R303 [3]; total 7 mg/kg i.p., regardless of the fractionation schedule",greater than 2 log10 CFU
same,free-drug AUC0-24 of single-dose regimen relative to daily regimen,[4]; 2 mg/kg total dose,7 fold
same,AUC0-168 of daily 1 mg/kg regimen relative to 2 mg/kg front-loaded regimen,[4],approximately 3 fold
same,maximum plasma concentration,[5]; 1 mg/kg i.p. single dose,3.97 mg/L
same,maximum plasma concentration,[5]; 4 mg/kg i.p. single dose,13.6 mg/L
same,maximum plasma concentration,[5]; 16 mg/kg i.p. single dose,52.0 mg/L
same,pharmacokinetics over the studied dose range,"[5]; 1 to 16 mg/kg i.p., mice",linear pharmacokinetics
same,"Q2 (distributional clearance), final estimate",[5]; [8],0.255 mL/min/kg
same,"Q3 (distributional clearance), final estimate",[5]; [8],5.2 mL/min/kg
same,"Q4 (distributional clearance), final estimate",[5]; [8],1.2 mL/min/kg
same,"V1 (central compartment volume), final estimate",[5]; [8],0.201 L/kg
same,"V2 (peripheral compartment volume), final estimate",[5]; [8],0.871 L/kg
same,"V3 (peripheral compartment volume), final estimate",[5]; [8],0.0341 L/kg
same,"V4 (peripheral compartment volume), final estimate",[5]; [8],0.165 L/kg
same,CL/F,"[5]; mouse, in vivo, ip, four-compartment model, murine plasma, 1-16 mg/kg i.p., read-out: CLt (total clearance), final estimate (converted)",0.173 mL/min/kg
same,modal MIC,Candida albicans R303 [6],0.125 µg/mL
same,hepatocyte findings,[7],no changes were observed
anidulafungin [reference compound],hepatocyte findings,[7],hepatocellular necrosis ranging from mild to moderate
oritavancin [reference compound],terminal half-life,[1],~245 h
